In PubChem BioAssay (NCI):
Several values for one entry are separate records, joined by “and”; a condition that tells them apart may be missing. Equal entries are not always repeated.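 Results reflect a 48-hour exposure of cells in 96-well plates to compound at five concentrations. At the GI50, growth is halved. The concentration for full growth arrest is given as TGI.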

What was measured:
Assay in all cases: NCI-60 cell line screen, 48 h
SR leukemia = system: SR leukemia
SK-MEL-5 melanoma = system: SK-MEL-5 melanoma
SNB-19 CNS = system: SNB-19 CNS
U251 CNS = system: U251 CNS
786-0 renal = system: 786-0 renal
CAKI-1 renal = system: CAKI-1 renal
HCT-116 colon = system: HCT-116 colon
A498 renal = system: A498 renal
A549 NSCLC = system: A549 NSCLC
NCI-H226 lung = system: NCI-H226 lung

Compound	GI50 (SR leukemia) [µM]	TGI (SR leukemia) [µM]	GI50 (SK-MEL-5 melanoma) [µM]	TGI (SK-MEL-5 melanoma)	GI50 (SNB-19 CNS) [µM]	TGI (SNB-19 CNS)	GI50 (U251 CNS)	TGI (U251 CNS)	GI50 (786-0 renal) [µM]	TGI (786-0 renal)	GI50 (CAKI-1 renal) [µM]	TGI (CAKI-1 renal)	GI50 (HCT-116 colon) [µM]	TGI (HCT-116 colon)	GI50 (A498 renal) [µM]	TGI (A498 renal)	GI50 (A549 NSCLC) [µM]	TGI (A549 NSCLC)	GI50 (NCI-H226 lung) [µM]	TGI (NCI-H226 lung)
O=C(CCC(C(=O)c1ccccc1)c1ccccc1)c1ccccc1 (configuration not stated)	4.46	> 100	9.29	34.3 µM	73.8	> 100 µM	13.4 µM	> 100 µM	49.4	> 100 µM	5.7	> 100 µM	6.45	> 100 µM	1.44	58.1 µM	7.29	> 100 µM		
O=C(/C(=C/c1ccc([N+](=O)[O-])cc1)SCc1ccc(F)cc1)c1ccc(Cl)cc1	2.63	> 100	4.33	15.2 µM	3.28	11.6 µM	2.07 µM	4.02 µM	10.9	24.6 µM					> 100	> 100 µM	> 100	> 100 µM	13.7	44.5 µM
S=C(N/N=C(/c1ccccc1)c1ccccn1)N1CCCCCC1			0.0199	0.138 µM and 1.17 µM	0.274	2.27 µM and 2.06 µM	0.00287 µM	1.22 µM and 1.27 µM	< 0.001	1.46 µM and 1.77 µM	0.131	1.87 µM and 2.02 µM	< 0.001	1.43 µM and 1.38 µM	0.00973	0.775 µM and 1.84 µM	0.0318	1.7 µM and 2.25 µM	0.02	1.19 µM and 1.58 µM
CC1=C[P+](Cc2ccccc2)(c2ccccc2)CC1 (configuration not stated)		> 100		> 100 µM and 56.7 µM and 84.1 µM		> 100 µM	23.1 µM and 58.1 µM and 9.71 µM	> 100 µM		> 100 µM				> 100 µM		> 100 µM		> 100 µM		> 100 µM
O=C(NN=C1CCCCC1)c1[nH]c2ccc(F)cc2c1-c1ccccc1	12.9	41.9	34.3	> 100 µM	47.3	> 100 µM	17.8 µM	37.7 µM	44.2	> 100 µM	34.5	> 100 µM			38.1	> 100 µM	42.9	> 100 µM	49.1	> 100 µM
S=c1nc(Cl)cc2[nH]c(Cl)cn12				17.5 µM		> 100 µM		> 100 µM		> 100 µM		> 100 µM		16.6 µM		56.9 µM		> 100 µM		> 100 µM
O=C1c2ccccc2-c2c1c1c(O)cccc1n2-c1ccccc1	> 100	> 100	> 100	> 100 µM	> 100	> 100 µM	> 100 µM	> 100 µM	62.2	> 100 µM	> 100	> 100 µM	> 100	> 100 µM			> 100	> 100 µM	> 100	> 100 µM
